# Test results reported in patent US20080241870A1, “Composition For Creating an Artificial Bone Marrow Like Environment and Use Thereof” (NATIONAL CENTRE FOR CELL SCINECES, priority 2005, published 2008).
# Columns and labels:
# Type in all cases: cell-based, human
# MNC = experiment: self renewal: GEMM colony formation of MNC mixed with doses of ABME cells
# Method: The mesenchyme cells were grown in IMDM plus 20% fetal bovine serum until they were nearly confluent. The medium was removed and was washed 2× with PBS. ABME was prepared by using a biological hematomodulator namely, TGF beta 1(20 ng ml−1).The ABME formed was washed 2× with PBS and the cells were dissociated with a non-enzymatic solution (Sigma). A fixed number of MNC namely 2×10^5 were mixed with various doses of dissociated mesenchymal cells (2×10^4, 5×10^4 and 1×10^5) and incubated for 1 hour. At the end of the incubation, cells were processed for hematopoietic colony formation assays (HCFA). […] Secondly the lowest concentration of cells from ABME (2×10^4) was more efficient in the stimulation of GEMM formation than the highest concentration (1×10^5) of mesenchymal cells indicating a nearly 10 fold increase in the efficiency.
# mesenchyme cells = experiment: SDF-1α release / in vitro homing of CD34+ SPC (conditioned medium of treated mesenchyme cells); conditions: 10 ngml^-1, 4 hours treatment, conditioned medium after 18 hours; vs untreated reference
# Method: 5×10^5 mesenchyme cells were grown on a 35 mm diameter Petri dish (Becton Dickinson, USA) in IMDM containing 20% serum. After the cells were confluent, the medium was removed, the cells were washed 2× with Phosphate buffered saline (GIBCO-BRL) (PBS) and the medium was changed to treatment medium containing 10 ngml^−1 of TGFβ1 and the dishes were returned to standard cell culture environment at 37° C. in 5% CO2. After 4 hours, the treatment medium was removed, the cells were washed with PBS and were covered with 1 ml of IMDM containing 0.5% serum and incubation at 37° C. in 5% CO2 was continued. After 18 hours, the conditioned medium was collected and was assayed for its ability to support in vitro homing of CD34^+ SPC. In another parallel experiment, an equal number of mesenchymal cells were employed, where TGF-β1 was not used and the conditioned medium obtained from this experiment was used as a reference for comparison. […] As shown in FIGS. 6(a-b) untreated mesenchymal cells show no or marginal homing as compared to mesenchymal cells treated with TGF-β1. The homing could be modulated in this case either by adding suitable amounts of a neutralizing antibody to SDF-1α or to its receptor CXCR-4 to neutralize its effects on chemo-attraction of SPC or by destroying the gradient by exogenous addition of SDF1α indicating the specificity of the process.
# mesenchymal cells = experiment: Hypoxy probe incorporation in ABME under normoxic conditions; conditions: 200 μM Hypoxy probe, 48 hours; FIG. 11b
# Method: Mesenchymal cells were processed for ABME formation as per details given in Example 7(a) above using a biological modulator namely TGFbeta1 and were incubated with 200 μM Hypoxy probe (Chemicon, USA) for 48 hours. The cells were fixed and immuno-stained with an antibody specific for detection of the label (Chemicon).
# CD34+ SPC = experiment: lineage commitment: HCFA with CD34+ SPC, count of mature blood cells after 14 days; conditions: 10 ngml^-1, 18 hours; HCFA 14 days; FIG. 8a
# Method: The mesenchyme cells (5×10^4 cells per well in a 24 well dish) were grown in IMDM plus 20% fetal bovine serum until they were nearly confluent. The medium was removed and was washed 2× with PBS. Two different ABME were prepared by using two biological hematomodulators (TGFβ1 10 ngml^−1, bFGF 10 ngml^−1, 18 hours) separately. The ABME formed was washed 2× with PBS and was covered with 0.2 ml of a suspension of CD34^+ SPC cells (10^5 ml−1) for 1 hour at 37° C. All the cells of the dish were then harvested after washing and were used in a HCFA. After 14 days, the mature blood cells formed were harvested and an aliquot of the suspension was examined under the microscope to identify and count the mature lymphoid and myeloid cells.
# The mesenchyme cells (5×10^4 cells per well in a 24 well dish) were grown in IMDM plus 20% fetal bovine serum until they were nearly confluent. The medium was removed and was washed 2× with PBS. The cells in one well were treated with a DiBromo derivative of the Calcium ion chelator BAPTA (5 micromolar) for one hour whereas another well received only the medium without the BAPTA derivative. After 1 hour of incubation at 37° C., TGFβ1 was added to both the wells (10 ng ml−1) and the incubation was continued for a further period of 18 hours. The ABME formed in both wells were washed and were used for HCFA using CD34^+ SPC. After 14 days the mature blood cells were harvested and were quantitated for the cells of erythroid and myeloid lineage.
substance,measurement,setting,value
HumanTransforming Growth Factor beta1 [TGFβ1],GEMM colony formation,"MNC; 20 ng ml-1, 2×10^5 MNC with 2×10^4, 5×10^4, 1×10^5 ABME cells vs control mesenchymal cells, FIG. 10a",clear dose dependent increase in GEMM colony formation
same,increase in efficiency of GEMM stimulation,MNC; 2×10^4 ABME cells vs 1×10^5 mesenchymal cells,~10 fold
same,SDF-1α release from mesenchymal cells,mesenchyme cells,significantly more amounts of SDF-1α was released
same,Hypoxy probe label incorporation,mesenchymal cells,high incorporation of the label
same,mature lymphoid and myeloid cells formed,CD34+ SPC,supported more myeloid cell formation
